Laboratory results as given in ChEMBL document CHEMBL1201862, “PubChem BioAssay data set” (2004).
Active and inactive are the calls of the source.

Columns and labels:
[1] = viability loss in THP-1 monocytes – THP-1 cells, cytotoxicity control for Vif-APOBEC3G degradation inhibitor project, dose response (AID 1117359); format: functional; conditions: THP-1
[2] = biological target: T1, Rac GTPase-activating protein 1 (Homo sapiens, UniProt Q9H0H5); test: blockers of MgcRacGAP-driven Rac1 GTP hydrolysis – biochemical, ADP Hunter fluorescence, primary and confirmatory, confirmation (AID 624330); format: functional
T1 sequence (Q9H0H5 whole entry): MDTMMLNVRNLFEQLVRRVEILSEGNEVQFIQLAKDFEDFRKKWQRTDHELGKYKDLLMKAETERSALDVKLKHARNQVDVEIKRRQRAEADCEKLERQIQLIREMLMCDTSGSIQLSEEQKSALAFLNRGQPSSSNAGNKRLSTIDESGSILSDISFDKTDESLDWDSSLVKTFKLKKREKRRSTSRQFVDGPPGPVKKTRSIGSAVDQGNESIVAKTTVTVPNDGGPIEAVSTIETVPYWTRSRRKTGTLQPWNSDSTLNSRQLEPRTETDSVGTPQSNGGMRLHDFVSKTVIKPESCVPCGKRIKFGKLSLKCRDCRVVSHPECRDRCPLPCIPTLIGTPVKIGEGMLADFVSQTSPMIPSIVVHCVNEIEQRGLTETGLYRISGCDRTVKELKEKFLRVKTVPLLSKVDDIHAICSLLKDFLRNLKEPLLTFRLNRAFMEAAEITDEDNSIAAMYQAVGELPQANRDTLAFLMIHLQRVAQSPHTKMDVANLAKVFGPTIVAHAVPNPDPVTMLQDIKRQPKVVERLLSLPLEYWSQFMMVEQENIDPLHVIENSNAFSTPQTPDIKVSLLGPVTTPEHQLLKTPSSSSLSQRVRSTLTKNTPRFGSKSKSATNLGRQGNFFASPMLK

[3] = Luminescence Cell-Based Dose Confirmation to Identify Activators of 5'UTR Stem-Loop Driven Alpha-Synuclein mRNA Translation in H4 Neuroglioblastoma Cells. [Related pubchem assays: 1829 (Project Summary), 1814 (Primary HTS)]; format: functional
[4] = Luminescence Cell-Based Dose Confirmation HTS to Identify Activators of 5'UTR Stem-Loop Driven Alpha-Synuclein mRNA Translation in H4 Neuroglioblastoma Cells. [Related pubchem assays: 1829 (Project Summary), 1814 (Primary HTS)]; format: functional
[5] = Luminescence Cell-Based Dose Response to Identify Activators of Luciferase Translation or Activity in H4-C Neuroglioblastoma Cells. [Related pubchem assays: 1829 (Project Summary), 1814 (Primary HTS)]; format: functional
H4 = test: Luminescence Cell-Based Dose Response HTS to Identify Activators of 5'UTR Stem-Loop Driven Prion Protein mRNA Translation in H4 Neuroglioblastoma Cells. [Related pubchem assays: 1829 (Project Summary), 1814 (Primary HTS)]; format: functional; conditions: Homo sapiens
[6] = Luminescence Cell-Based Dose Response to Identify Activators of 5'UTR Stem-Loop Driven Prion Protein mRNA Translation in H4-C Neuroglioblastoma Cells. [Related pubchem assays: 1829 (Project Summary), 1814 (Primary HTS)]; format: functional
[7] = Luminescence Cell-Based Dose Response HTS to Identify Activators of Luciferase Translation or Activity in H4 […] Cells. [Related pubchem assays: 1829 (Project Summary), 1814 (Primary HTS)]; format: functional
HeLa = test: ATP-based viability loss in HeLa cells – cell-based, CellTiter-Glo luminescence, cherry-pick samples, cytotoxicity control for MITF activator project, dose response (AID 540259); format: functional; conditions: Homo sapiens
[8] = biological target: T2, RNA-binding protein pos-1 (Caenorhabditis elegans, UniProt G5EF15); test: disruptors of C. elegans POS-1 RNA interaction – biochemical, fluorescence polarization, dose response (AID 1964);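 note: purified POS-1 fused to maltose binding protein made in E. coli; potency of compounds blocking POS-1 binding to fluorescent RNA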
T2 sequence (G5EF15 whole entry): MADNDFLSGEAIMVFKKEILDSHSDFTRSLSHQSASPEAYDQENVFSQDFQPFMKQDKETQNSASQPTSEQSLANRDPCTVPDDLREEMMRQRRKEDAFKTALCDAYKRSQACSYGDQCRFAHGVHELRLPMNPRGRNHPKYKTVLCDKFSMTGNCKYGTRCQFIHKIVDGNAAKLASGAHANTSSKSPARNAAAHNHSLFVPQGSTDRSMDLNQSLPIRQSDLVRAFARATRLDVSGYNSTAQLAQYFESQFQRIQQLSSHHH

Caspase-6 = biological target: T3, Caspase-6 (Homo sapiens, UniProt P55212); test: inhibition of CASP6 peptide cleavage – biochemical, VEID-R110 fluorescence, cherry-pick, dose response (AID 720632)
T3 sequence (P55212 whole entry): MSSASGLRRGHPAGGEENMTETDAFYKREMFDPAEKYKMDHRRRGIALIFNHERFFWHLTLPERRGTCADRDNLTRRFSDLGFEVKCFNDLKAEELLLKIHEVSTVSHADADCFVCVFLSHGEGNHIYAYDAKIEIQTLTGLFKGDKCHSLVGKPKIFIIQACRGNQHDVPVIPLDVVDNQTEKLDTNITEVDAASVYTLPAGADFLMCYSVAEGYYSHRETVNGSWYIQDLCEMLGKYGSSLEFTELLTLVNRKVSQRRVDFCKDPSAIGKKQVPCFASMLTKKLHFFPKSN

[9] = biological target: T4, Histone-lysine N-methyltransferase NSD2 (Homo sapiens, UniProt O96028); format: biochemical
T4 sequence (O96028 whole entry): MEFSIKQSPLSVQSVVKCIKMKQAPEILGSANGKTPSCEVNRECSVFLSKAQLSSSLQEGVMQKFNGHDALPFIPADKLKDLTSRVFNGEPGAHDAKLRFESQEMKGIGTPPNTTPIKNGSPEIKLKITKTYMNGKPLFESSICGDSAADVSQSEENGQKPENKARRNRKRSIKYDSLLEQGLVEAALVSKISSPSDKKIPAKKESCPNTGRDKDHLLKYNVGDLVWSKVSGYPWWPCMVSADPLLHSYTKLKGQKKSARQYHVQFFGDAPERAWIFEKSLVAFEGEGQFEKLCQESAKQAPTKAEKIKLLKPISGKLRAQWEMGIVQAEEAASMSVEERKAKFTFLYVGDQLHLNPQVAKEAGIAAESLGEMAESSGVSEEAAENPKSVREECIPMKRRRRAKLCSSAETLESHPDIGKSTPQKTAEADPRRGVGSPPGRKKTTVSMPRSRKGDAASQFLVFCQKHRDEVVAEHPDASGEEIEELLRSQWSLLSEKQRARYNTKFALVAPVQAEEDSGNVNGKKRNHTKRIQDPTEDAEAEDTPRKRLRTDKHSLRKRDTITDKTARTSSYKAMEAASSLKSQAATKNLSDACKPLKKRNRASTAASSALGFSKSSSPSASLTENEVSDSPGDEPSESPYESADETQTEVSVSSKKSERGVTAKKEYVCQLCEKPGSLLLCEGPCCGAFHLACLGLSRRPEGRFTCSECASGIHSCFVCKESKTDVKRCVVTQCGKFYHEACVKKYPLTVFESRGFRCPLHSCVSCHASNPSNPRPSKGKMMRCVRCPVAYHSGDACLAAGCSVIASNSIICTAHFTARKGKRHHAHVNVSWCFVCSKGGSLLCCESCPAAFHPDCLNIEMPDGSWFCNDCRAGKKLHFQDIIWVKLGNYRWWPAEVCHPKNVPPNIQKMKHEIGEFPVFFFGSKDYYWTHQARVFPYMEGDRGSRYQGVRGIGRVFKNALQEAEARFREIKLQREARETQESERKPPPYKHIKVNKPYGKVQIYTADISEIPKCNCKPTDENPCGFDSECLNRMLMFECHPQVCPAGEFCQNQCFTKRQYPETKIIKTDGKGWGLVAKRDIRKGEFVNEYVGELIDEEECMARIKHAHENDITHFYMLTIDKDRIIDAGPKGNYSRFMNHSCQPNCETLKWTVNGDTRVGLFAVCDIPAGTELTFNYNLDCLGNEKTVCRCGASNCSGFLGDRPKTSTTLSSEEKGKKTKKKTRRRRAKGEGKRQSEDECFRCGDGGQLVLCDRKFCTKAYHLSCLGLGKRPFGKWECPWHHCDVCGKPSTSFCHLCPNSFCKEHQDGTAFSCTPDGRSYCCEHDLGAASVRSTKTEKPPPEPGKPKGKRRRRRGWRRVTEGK

[10] = biological target: T5, Zinc finger protein mex-5 (Caenorhabditis elegans, UniProt Q9XUB2); test: potency of MEX-5 RNA-binding blockers – biochemical, C. elegans, fluorescence polarization, dose response (AID 1960)
T5 sequence (Q9XUB2 whole entry): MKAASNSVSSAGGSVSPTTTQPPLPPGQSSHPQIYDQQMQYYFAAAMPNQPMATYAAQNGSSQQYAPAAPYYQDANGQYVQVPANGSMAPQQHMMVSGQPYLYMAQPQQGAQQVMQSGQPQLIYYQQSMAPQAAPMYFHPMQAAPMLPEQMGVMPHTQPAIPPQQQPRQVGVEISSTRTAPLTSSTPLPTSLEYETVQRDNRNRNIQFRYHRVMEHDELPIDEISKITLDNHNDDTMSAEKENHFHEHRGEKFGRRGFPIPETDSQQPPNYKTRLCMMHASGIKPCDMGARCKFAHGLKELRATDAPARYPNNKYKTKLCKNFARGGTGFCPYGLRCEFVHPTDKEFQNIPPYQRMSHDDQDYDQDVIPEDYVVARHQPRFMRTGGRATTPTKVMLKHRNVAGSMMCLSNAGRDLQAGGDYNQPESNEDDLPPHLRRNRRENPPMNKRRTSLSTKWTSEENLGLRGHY

[11] = biological target: T6, Carboxy-terminal domain RNA polymerase II polypeptide A small phosphatase 1 (Homo sapiens, UniProt Q9GZU7); test: CTDSP1 inhibitors, concentration-response, biochemical, absorbance readout, ultra-high-throughput screen actives (AID 540297); format: functional
T6 sequence (Q9GZU7 whole entry): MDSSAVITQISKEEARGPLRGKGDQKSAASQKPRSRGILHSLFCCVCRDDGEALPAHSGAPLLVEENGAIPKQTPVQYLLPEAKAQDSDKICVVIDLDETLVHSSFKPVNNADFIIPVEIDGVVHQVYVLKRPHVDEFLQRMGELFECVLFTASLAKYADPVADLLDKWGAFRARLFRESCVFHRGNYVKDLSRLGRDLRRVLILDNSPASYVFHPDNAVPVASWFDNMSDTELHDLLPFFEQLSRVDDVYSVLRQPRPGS

[12] = P. falciparum Dd2 growth inhibitors, dose response, SYBR Green, cherry-picked samples (AID 1159567); format: functional, cell-based
[13] = growth inhibition of yeast DHODH-expressing 3D7 parasites – SYBR Green, dry powder samples, dose response (AID 1159570); format: functional, cell-based;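 note: parasite growth measured after 72 hours of compound exposure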
[14] = growth inhibition of PfATP4-mutant resistant parasites – NITD609-resistant line, SYBR Green, dry powder, dose response (AID 1159571); format: functional, cell-based;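 note: parasites synchronized at ring stage by sorbitol before testing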
[15] = toxicity to human HepG2 hepatoma cells – cell-based, plate reader, dry powder samples, cytotoxicity control, dose response (AID 1159569); format: functional;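 note: inhibitor potency with signal falling toward the positive control level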
[16] = Dd2 malaria parasite growth inhibition potency – SYBR Green, dry powder samples, dose response (AID 1159566); format: functional, cell-based;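 note: potency for growth inhibition with lower SYBR green DNA signal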
[17] = toxicity to human hepatoma HepG2 cells – cell-based, cherry-picked samples, cytotoxicity control, dose response (AID 1159577); format: functional

COc1cc(Br)c(CNc2cc(C)ccc2C)cc1OC
active: CC50 [1] 12600 nM | IC50 [2] 97400 nM

CN(C)/C=C1\C(=O)N(c2ccc(Cl)cc2)CS1(=O)=O
active: EC50 [3] 697 nM | EC50 [4] < 100 nM | EC50 [5] 648 nM | EC50 [6] 1520 nM | EC50 [7] 63600 nM
> 120000 nM (not active): EC50 (H4)

Cc1ccc(-n2c(C)csc2=N)cc1
active: EC50 [3] 421 nM | EC50 [4] < 100 nM | EC50 [5] 8210 nM | EC50 (H4) 547 nM | EC50 [6] 373 nM | EC50 [7] 102 nM

Cc1cc2cc(OCc3ccccc3)ccc2n1C
active: EC50 [3] 217 nM | EC50 [5] 393 nM | AC50 (HeLa) 97800 nM | EC50 (H4) < 100 nM | EC50 [6] 383 nM

Nc1c(C(=O)N2CCCCC2)sc2nc3c(cc12)CCCC3
active: EC50 [3] 322 nM | EC50 [5] 923 nM | EC50 [6] 682 nM | EC50 [7] < 100 nM

Cc1cc(C=O)c(C)n1-c1cc(C(=O)O)cc(C(=O)O)c1
> 300000 nM (not active): EC50 [8] | EC50 [10]
inactive: AC50 [9] > 20000 nM
active: AC50 (Caspase-6) 1710 nM | IC50 [11] 3160 nM

COc1ccc(OC)c(NC(=O)CSc2nc3ccccc3c(=O)n2CC2CCCO2)c1 (stereo not given)
active: CC50 [1] > 40000 nM

NCCC(=O)N1c2ccccc2Sc2ccccc21
active: CC50 [1] > 40000 nM

CCCN1[C@H](CO)[C@H](c2ccc(C3=CCCC3)cc2)[C@H]1CN(C(C)=O)C1CCCC1
active: AC50 [12] 1920 nM | AC50 [13] 3260 nM | AC50 [14] 1600 nM | AC50 [15] 72100 nM | AC50 [16] 1750 nM

OC[C@@H]1Nc2ccc(C#Cc3cccc(F)c3)cc2[C@H]2NCC[C@@H]12
active: AC50 [12] 3010 nM | AC50 [17] 25600 nM | AC50 [13] 1150 nM | AC50 [14] 2340 nM | AC50 [15] 17500 nM | AC50 [16] 804 nM

N#C[C@@H]1[C@@H](c2ccccc2C2=CCCC2)[C@@H](CO)N1C(=O)NC1CCCC1
active: AC50 [12] 791 nM | AC50 [13] 10900 nM | AC50 [14] 744 nM | AC50 [15] 56800 nM | AC50 [16] 592 nM

COc1ccc(C#Cc2cccc(-c3nc(C(=O)Nc4ccc(-c5ccccc5)cc4)cc4c3[C@@H](CCO)N([S+]([O-])C(C)(C)C)C4)c2)cc1OC (stereo not given in full)
inactive: AC50 [17] > 39000 nM
active: AC50 [12] 995 nM | AC50 [13] 1120 nM | AC50 [14] 621 nM | AC50 [15] 24100 nM | AC50 [16] 486 nM

C[C@H](CO)N1C[C@H](C)[C@@H](CN(C)C(=O)CCCN(C)C)OCc2cnnn2CCCC1=O
inactive: AC50 [17] > 42000 nM

COc1cccc(CN2C[C@@H]3N[C@H](C2)[C@@H]3c2ccc(-c3ccc(C#N)cc3)cc2)c1
active: AC50 [12] 3090 nM | AC50 [17] 9630 nM
